Key:
Assay in all cases: Microbroth dilution, meropenem MIC with/without compound
Format in all cases: cell-based
[1] = system: K. pneumoniae K66-45 (NDM-1); details: compound at 125 μM; K66-45 K. pneumoniae NDM-1
Experimental: (§1) General Protocol for Microbroth Dilution Method for Evaluating Antibacterial Activity of Compounds or Synergistic Effect of Compound-Antibiotic Combination
(§2) • Plate bacterial strain(s) on appropriate media: • Gram-negative bacteria with ESBLs or carbapenemases: green agar plates with 100 mg/L ampicillin • Gram-negative bacteria without β-lactamases: green agar plates • Gram-positive bacteria (Staphylococci and Enterococci): blood agar plates • Incubate o.n. at 37° C. Day 2: Prepare the Bacterial Inoculum: • Prepare a 0.5 McFarland suspension of bacteria in 0.85% NaCl. (Should be used within 15 min of preparation). • Dilute the 0.5 McFarland suspension 1:100 into MH broth. Check the inoculum by diluting the prepared bacterial suspension 1:100 (10 μl bacterial suspension+990 μl 0.85% NaCl). Plate 10 μl of the dilution on MH agar plates (×2). Incubate o.n. at 37° C., count the colonies and calculate the final CFU/ml inoculum in the plate by multiplying the average number of colonies with 10000 and divide by 2. The final inoculum should be between 3-7×10^5 CFU/ml. • Add 50 μl of the prepared bacterial suspension to each well in the microtiter plate except negative growth control. Preparation of Compounds/Antibiotics • Calculate the desired concentration-range and volume of the compounds/antibiotics in the assay. […] Dilute the stock solution in MH broth. Make subsequent 2-fold dilutions in MH broth of the desired concentrations if a concentration range is to be tested (remember the extra dilution factor in the assay plate). Always include extra volume for pipetting. Take into consideration stock solutions that are made in buffers that have an effect on bacterial growth (e.g. DMSO). Assay: • Determining the MIC of compounds/antibiotics alone: • Add 25 μl of each concentration of compound/antibiotic to row 2-11 (highest concentration in row 2) • Add 25 μl MH broth to row 2-11 • Add 50 μl MH broth to row 12 (positive control) • Add 100 μl MH broth to row 1 • Add 50 μl bacterial suspension to row 2-12. • Determining the MIC of antibiotics+compounds: • Add 25 μl of each concentration of antibiotic to row 2-11 (highest concentration in row 2) • Add 25 μl of compound to row 2-11 • Add 50 μl MH broth to row 12 (positive control) • Add 100 μl MH broth to row 1 • Add 50 μl bacterial suspension to row 2-12. • Incubate the plate for 20 hrs at 37° C. and determine the MIC in the presence and absence of inhibitor.

E. coli K71-77 (NDM-1) = details: compound at 125 μM; K71-77 E. coli NDM-1
Experimental: as §1, §2

[2] = system: P. aeruginosa K34-7 (VIM-2); details: compound at 125 μM; K34-7 P. aeruginosa VIM-2
Experimental: as §1, §2

[3] = system: P. aeruginosa 50692172 (NDM-1); details: compound at 125 μM; 50692172 P. aeruginosa NDM-1
Experimental: as §1, §2

[4] = system: K. pneumoniae A3-81 (VIM-1); details: compound at 125 μM; A3-81 K. pneumoniae VIM-1
Experimental: as §1, §2

E. coli 50639799 (VIM-1) = details: compound at 125 μM; 50639799 E. coli VIM-1
Experimental: as §1, §2

Meropenem MIC (mg/L) in presence of compound [1]: 64 mg/L | Meropenem MIC (mg/L) in presence of compound (E. coli K71-77 (NDM-1)): 2 to 4 mg/L | Meropenem MIC (mg/L) in presence of compound [2]: 32 mg/L | Meropenem MIC (mg/L) in presence of compound [3]: 32 to 64 mg/L | Meropenem MIC (mg/L) in presence of compound [4]: 64 to 128 mg/L | Meropenem MIC (mg/L) in presence of compound (E. coli 50639799 (VIM-1)): 16 mg/L
SMILES: C[C@H](CS)C(=O)N1CCC[C@H]1C(=O)O [Captopril]

— patent US10227327B2, “Inhibitors of metallo-beta-lactamase (MBL) comprising a zinc chelating moiety” (Universitetet I Oslo, priority 2013, dated 2019)
